Experimental data reported in patent publication US20250109127A1, “METHODS OF USE OF PHENOXYPROPYLAMINE COMPOUNDS TO TREAT DEPRESSION” (Minerva Neurosciences, Inc., priority 2013, published 2025).
“Also recorded” adds a separate entry of the source.

Tests used:
[1] = Pharmacokinetic study, plasma concentration on day 1 and day 14; assay type: in vivo; settings: day 1 and day 14 after dosing with SON-117
Excerpt: were examined in pharmacokinetic studies.
FIG. 34 illustrates the plasma concentration of SON-117 as a function of time on day 1 after dosing with SON-117. FIG. 35 illustrates the plasma concentration of SON-117 as a function of time on day 14 after dosing with SON˜117.
FIG. 36 illustrates the plasma concentration of the M1 metabolite of SON-117 as a function of time on day 1 after dosing with SON-117. FIG. 37 illustrates the plasma concentration of the M1 metabolite of SON-117 as a function of time on day 14 after dosing with SON-117.

[2] = system: dopamine release in the rat prefrontal cortex; experiment: Microdialysis: dopamine release in prefrontal cortex after I.P. administration; assay type: in vivo; settings: 3 mg/kg IP, n = 8
Experimental: The aim of the study was to evaluate, using microdialysis, the effects of an intraperitoneal (I.P.) administration in rats of three different doses of SON-117 on dopamine and its metabolites, serotonin and its metabolite (5-HIAA), and norepinephrine levels in prefrontal cortex.
Thirty-two adult male Wistar rats were used for the whole study (4 groups of eight animals planned for the study, Table 1).
Surgery was performed on rats weighing about 300 g at the beginning of the experiments. Rats were anaesthetized with Ketamine (50 mg/kg) & Xylazine (15 mg/kg) by intramuscular administration. The animals were placed in a stereotaxic apparatus in the flat-skull position at a constant setting of −3.3 mm between ear bars and the incisor bar. The animals were treated with a local anesthesic (xylocaine 1%, Astra Zeneca) and an analgesic (Temgesic, from Schering Plough, 0.05 mg/kg, s.c.). A rostrocaudal midline incision was made with a lancet to expose the dorsal skull surface. The “stereotaxic zero” was defined by the Bregma in accordance with Paxinos and Watson's atlas (1986). A hole was drilled in the skull with a drill and the meninges were pierced with a sterile needle to implant a CMA12 guide cannula which later received the dialysis probe.
Coordinates used for implanting guide cannula in prefrontal cortex from Bregma were anteroposterior 3.7 mm, mediolateral 0.8 mm, and dorsoventral −2 mm (top of the probe was at −5 mm). The guide cannula was fixed to the skull with two stainless steel screws (1.88 mm outside diameter) anchored. An application of dental cement was added. A plastic collar allowed each animal to be tethered to a Swivel assembly of the CMA 120 awake animal system. Following surgery, rats were kept in individual cages and allowed to recover for a minimum of 3-5 days before the experimentation. The rats were handled and put in plastic bowl for 10 min at least every day to habituate the animals to their new environment for the dialysis. An I.P. administration with saline was also performed every day.
Dialysis probes (CMA12/3 mm, membrane, 20 kD cut-off, Carnegie Medicine, Stockholm, Sweden), were carefully washed before inserting into the guide cannula. The wash was performed with the artificial cerebrospinal fluid (aCSF) medium (NaCl 147 mM, KCl 2.7 mM, CaCl2 1.2 mM, MgCl2 0.85 mM) at room temperature. The dialysis system was then equilibrated at 20° C. at a perfusion rate of 1 μl/min with a Carnegie pump (CMA100). All catheters (FEP tubing, internal volume of 1.2 μl/10 cm, and tubing adaptors) used for microdialysis were treated in the same conditions.
The probes duly prepared were inserted into the guide cannula and the CMA120 Swivel assembly secured to the animal using a plastic collar. Flow through the dialysis probe with aCSF was maintained at a rate of 1 μl/min during the whole experimentation. The first four fractions (corresponding to 2 hours) were discarded to avoid the effects of parenchymal disturbance and to ensure that an approximate steady-state level was reached. Fractions were then collected over a period of 8.5 h during which time the animals remained quiet. The dialysates were automatically collected with an autosampler (microfraction collector CMA 140, Carnegie Medicin) and stored at −80° C. until analysis. […] Perfusion was then maintained for 7 hours with aCSF. The dialysates (30 μl) were collected into 300 μl vials, transferred into dry ice and then kept frozen (−80° C.) until analysis. Frozen samples were shipped to a partner for analysis. At the end of the microdialysis study, a PBS with colored ink was perfused through the probe in order to visualize the dialyzed area.
Catecholamine assay: Concentrations of dopamine, DOPAC, HVA, 5-HIAA, 5-HT, and norepinephrin were determined for each sample by HPLC coupled with electrochemical detection.

sleep EEG parameters = experiment: Polysomnography / sleep EEG study; assay type: in vivo, human; settings: escitalopram 20 mg
Experimental: In this study, certain pharmacodynamic sleep parameters predictive of antidepressant activity were monitored and measured. […] Three doses of SON-117 were tested (1 mg, 3 mg, 7.5 mg). […] In an embodiment, SON-117 affected sleep. In an embodiment, SON-117 affected REM sleep.
[…] subjects were tested in a sleep study, where 23 subjects were dosed with SON-117 in amounts of 1 mg up to 7.5 mg; 12 were given a placebo; and 8 were given escitalopram at a dose of 20 mg. Sleep was recorded in individual sound-attenuated and comfortably furnished bedrooms. During bedtime hours subjects were recumbent and the lights are turned off. The polysomnographic montage consisted of 4 EEG channels (C3A2, O1A2, C4A1, and O2A1), bilateral electro-oculograms, and 2 submental electromyograms. The different sleep parameters were derived with the Hypnos software from the visual scoring of the recordings at 30 sec epochs according to Rechtschaffen and Kales (1968) rules. Sleep continuity parameters comprise both sleep initiation and sleep maintenance variables. Sleep architecture parameters, which include REM sleep parameters, comprise stages distribution variables documenting duration and proportion of the different sleep stages and sleep profile variables that provide an outline on the time course of the different sleep stages during the recording period. All night sleep EEG spectral analysis was carried out on the C3-A2 derivation by means a fast Fourrier transform algorithm. Epoch length was 2 seconds at a sampling rate of 256 Hz and truncating error was reduced by applying a Hanning window. Sleep visual scores of each 30-second epoch was synchronised with power density values in order to allow the analysis of power density within in specific period of time such as REM and non REM sleep.

[3] = system: animals exposed to chronic mild stress; experiment: Chronic mild stress (CMS) model, consumption of 1% sucrose solution; assay type: in vivo, rat
Experimental: Male Wistar rats (Charles River, Germany) were brought into the laboratory one month before the start of the experiment. Except as described below, the animals were singly housed with food and water freely available, and were maintained on a 12-h light/dark cycle, in a constant temperature (22±2° C.) and humidity (50±5%) conditions.
After a period of 2 weeks of adaptation to laboratory and housing conditions, the animals were first trained to consume a 1% sucrose solution; training consisted of nine 1 h baseline tests in which sucrose was presented, in the home cage, following 14 h food and water deprivation; the sucrose intake was measured by weighing pre-weighed bottles containing the sucrose solution, at the end of the test. Subsequently, the sucrose consumption was monitored, under similar conditions, at weekly intervals throughout the whole experiment.
On the basis of their sucrose intakes in the final baseline test, the animals were divided into two matched groups. One group of animals was subjected to the chronic mild stress procedure for a period of 8 consecutive weeks. Each week of stress regime consisted of: two periods of food or water deprivation, two periods of 45 degree cage tilt, two periods of intermittent illumination (lights on and off every 2 h), two periods of soiled cage (250 ml water in sawdust bedding), one period of paired housing, two periods of low intensity stroboscopic illumination (150 flashes/min), and three periods of no stress. All stressors were 10-14 h of duration and were applied individually and continuously, day and night. Control animals were housed in separate rooms and had no contact with the stressed animals. They were deprived of food and water for the 14 h preceding each sucrose test, but otherwise food and water were freely available in the home cage.
On the basis of their sucrose intakes following initial 2 weeks of stress, both the stressed and the control groups were each divided further into matched subgroups (n=8), and for subsequent five weeks they received once daily intraperitoneal injections of vehicle (0.5% hydroxypropylmethylcellulose, 1 ml/kg), SON-117 (0.001, 0.01, 0.1 and 1 mg/kg) or imipramine (10 mg/kg) as the reference treatment. The drugs were administered at approx. 10:00 AM and the weekly sucrose tests were carried out 24 h following the last drug injections. After five weeks all treatments were terminated and one additional sucrose test was carried out after one week of withdrawal. Stress was continued throughout the period of treatment and withdrawal.
(§1) After completion of the administration and withdrawal period, all control and stressed animals were placed in an open field (100 cm in diameter, 35 cm high) and allowed to explore two identical objects (cylinder-shaped object with walls painted white, 7 cm in diameter, 11 cm high) for the time required to complete 15 s of exploration of either object. For the retention trial conducted one hour later, one of the objects presented previously was replaced with a novel object (prism-shaped object with walls painted black, 5 cm wide, 14 cm high). Rats were returned to the open field for 5 min and the duration of exploration (i.e. sitting in close proximity to the objects, sniffing or touching them) of each object was measured separately by a trained observer. The data were calculated according to the following formula: [time of novel object exploration divided by time of novel plus familiar object exploration multiplied by 100]. The CMS and NOR data were analyzed by multiple analyses of variance with three between-subjects factors (stress/control, drug treatments and intakes in successive sucrose tests). The Fisher's LSD test was used for the post-hoc comparisons of means.

[4] = system: animals exposed to chronic mild stress; experiment: Novel object recognition test after CMS and treatment withdrawal; assay type: in vivo, rat; settings: imipramine 10 mg/kg IP, one week after withdrawal
Excerpt: as §1

OCc1nnc(-c2cc3c(OC[C@@H](O)CN4CCC(c5ccc(Cl)c(Cl)c5)CC4)cccc3o2)o1 [M1]
AUC, dependence on dose [1]: dose-proportional increase
Cmax, dependence on dose [1]: dose-proportional increase

Cc1nnc(-c2cc3c(OC[C@@H](O)CN4CCC(c5ccc(Cl)c(Cl)c5)CC4)cccc3o2)o1.Cl [SON117]
Dopamine release, MEAN ([2]; T0-T30 min): 129.47 % of respective basal
Dopamine release, MEAN ([2]; T30-T1 h): 110.54 % of respective basal
Dopamine release, MEAN ([2]; T1 h 30-T2 h): 134.25 % of respective basal
Dopamine release, MEAN ([2]; T1 h-T1 h 30): 169.31 % of respective basal
Dopamine release, MEAN ([2]; T2 h 30-T3 h): 115.17 % of respective basal
Dopamine release, MEAN ([2]; T2 h-T2 h 30): 106.18 % of respective basal
Dopamine release, MEAN ([2]; T3 h 30-T4 h): 113.02 % of respective basal
Dopamine release, MEAN ([2]; T3 h-T3 h 30): 117.50 % of respective basal
Dopamine release, MEAN ([2]; T4 h 30-T5 h): 111.42 % of respective basal
Dopamine release, MEAN ([2]; T4 h-T4 h 30): 126.77 % of respective basal
Dopamine release, MEAN ([2]; T5 h 30-T6 h): 148.15 % of respective basal
Dopamine release, MEAN ([2]; T5 h-T5 h 30): 123.35 % of respective basal
Dopamine release, MEAN ([2]; T6 h 30-T7 h): 167.43 % of respective basal
Dopamine release, MEAN ([2]; T6 h-T6 h 30): 131.63 % of respective basal
Dopamine release, MEAN ([2]; T-30 min-T0 (before administration)): 96.15 % of respective basal
Dopamine release, MEAN ([2]; T-1 h 30-T-1 h (before administration)): 104.41 % of respective basal
Dopamine release, MEAN ([2]; T-1 h-T-30 min (before administration)): 99.29 % of respective basal

CN(C)CCC[C@@]1(c2ccc(F)cc2)OCc2cc(C#N)ccc21 [escitalopram, reference compound]
pharmacodynamic sleep parameters, positive comparator (sleep EEG parameters): behaved as expected

CN(C)CCCN1c2ccccc2CCc2ccccc21 [imipramine, reference compound]
treatment time until increase in sucrose intake in stressed animals reached statistical significance vs Week 0 ([3]; imipramine 10 mg/kg IP): four
effect on sucrose intake one week after cessation of treatment ([3]; imipramine 10 mg/kg IP, stressed animals): maintained
sucrose intake in control animals, compared to vehicle ([3]; once daily IP for five weeks, imipramine 10 mg/kg, SON-117 all doses (0.001, 0.01, 0.1 and 1 mg/kg)): no significant effect
sucrose consumption in stressed animals, compared to vehicle ([3]; once daily IP for five weeks, imipramine 10 mg/kg, SON-117 all four doses (0.001-1 mg/kg)): gradually increased; also recorded: fully reversed
recognition index in control animals [4]: decreased
effect against the CMS-induced deficit in recognition index ([4]; stressed animals): ineffective
